Results taken from US8871680B2, “Herbicidal compositions comprising 4-amino-3-chloro-5-fluoro-6-(4-chloro-2-fluoro-3-methoxyphenyl) pyridine-2-carboxylic acid or a derivative thereof and a di-methoxy-pyrimidine and derivatives thereof” (Dow AgroSciences LLC, priority 2012, dated 2014).

How the values were obtained:
[1] = test system: ECHCG; assay: Postemergence foliar-applied weed control, direct seeded rice (greenhouse); type: in vivo, Echinochloa crusgalli (L.) Beauv.
From the text: (§1) Seeds or nutlets of the desired test plant species were planted in a soil matrix prepared by mixing a loam or sandy loam soil (e.g., 28.6 percent silt, 18.8 percent clay, and 52.6 percent sand, with a pH of about 5.8 and an organic matter content of about 1.8 percent) and calcareous grit in an 80 to 20 ratio. The soil matrix was contained in plastic pots with a volume of 1 quart and a surface area of 83.6 square centimeters (cm^2). When required to ensure good germination and healthy plants, a fungicide treatment and/or other chemical or physical treatment was applied. The plants were grown for 8-22 days in a greenhouse with an approximate 14 hr photoperiod which was maintained at about 29° C. during the day and 26° C. during the night. Nutrients (Peters Excel® 15-5-15 5-Ca 2-Mg and iron chelate) were applied in the irrigation solution as needed and water was added on a regular basis. Supplemental lighting was provided with overhead metal halide 1000-Watt lamps as necessary. The plants were employed for testing when they reached the first through fourth true leaf stage. […]
(§2) Treatment requirements were calculated based upon the rates being tested, the concentration of active ingredient or acid equivalent in the formulation, and a 12 mL application volume at a rate of 187 L/ha.
(§3) For treatments comprised of formulated compounds, measured amounts of compounds were placed individually in 25 mL glass vials and diluted in a volume of 1.25% (v/v) Agri-Dex® crop oil concentrated to obtain 12× stock solutions. […]
(§4) For treatments comprised of formulated and technical compounds, weighed amounts of the technical materials were placed individually in 25 mL glass vials and dissolved in a volume of 97:3 v/v acetone/DMSO to obtain 12× stock solutions, and measured amounts of the formulated compounds were placed individually in 25 mL glass vials and diluted in a volume of 1.5% (v/v) crop oil concentrate or water to obtain 12× stock solutions. […]

[2] = test system: LEFCH; assay: as above; type: in vivo, Leptochloa chinensis (L.) Nees
From the text: (§5) Seeds or nutlets of the desired test plant species were planted in a soil matrix prepared by mixing a loam or sandy loam soil (e.g., 28.6 percent silt, 18.8 percent clay, and 52.6 percent sand, with a pH of about 5.8 and an organic matter content of about 1.8 percent) and calcareous grit in an 80 to 20 ratio. The soil matrix was contained in plastic pots with a volume of 1 quart and a surface area of 83.6 square centimeters (cm^2). When required to ensure good germination and healthy plants, a fungicide treatment and/or other chemical or physical treatment was applied. The plants were grown for 8-22 days in a greenhouse with an approximate 14 hr photoperiod which was maintained at about 29° C. during the day and 26° C. during the night. Nutrients (Peters Excel® 15-5-15 5-Ca 2-Mg and iron chelate) were applied in the irrigation solution as needed and water was added on a regular basis. Supplemental lighting was provided with overhead metal halide 1000-Watt lamps as necessary. The plants were employed for testing when they reached the first through fourth true leaf stage.
(§6) Treatments consisted of the acid or esters of 4-amino-3-chloro-5-fluoro-6-(4-chloro-2-fluoro-3-methoxy-phenyl)pyridine-2-carboxylic acid (Compound A), each formulated as an SC (suspension concentrate), and various herbicidal components alone and in combination. Forms of compound A were applied on an acid equivalent basis.
(§7) Other herbicidal components were applied on an active ingredient basis and included the dimethoxy-pyrimidine acid acetolactate synthase (ALS)-inhibiting herbicides bispyribac-sodium formulated as Regiment® 80WP, pyribenzoxim (technical grade material), pyriminobac-methyl formulated as Hie-Clean® 1.2% GR dissolved in water, and pyriftalid (technical grade material).
as §2
(§8) For treatments comprised of formulated compounds, measured amounts of compounds were placed individually in 25 mL glass vials and diluted in a volume of 1.25% (v/v) Agri-Dex® crop oil concentrated to obtain 12× stock solutions. […] Application solutions were prepared by adding an appropriate amount of each stock solution (e.g., 1 mL) and diluted to the appropriate final concentrations with the addition of 10 mL of an aqueous mixture of 1.25% (v/v) crop oil concentrate so that the final spray solutions contained 1.25+/−0.005% (v/v) crop oil concentrate.
(§9) For treatments comprised of technical compounds, weighed amounts can be placed individually in 25 mL glass vials and dissolved in a volume of 97:3 v/v acetone/DMSO to obtain 12× stock solutions. […] Application solutions can be prepared by adding an appropriate amount of each stock solution (e.g., 1 mL) and diluted to the appropriate final concentrations with the addition of 10 mL of an aqueous mixture of 1.5% (v/v) crop oil concentrate so that the final spray solutions contain 1.25% (v/v) crop oil concentrate. When technical materials are used, the concentrated stock solutions can be added to the spray solutions so that the final acetone and DMSO concentrations of the application solutions are 16.2% and 0.5%, respectively.
as §4

[3] = test system: IPOHE; assay: as above; type: in vivo, Ipomoea hederacea Jacq.
From the text: as §5, §6, §7, §2, §8, §9, §4

[4] = test system: SCPMA; assay: In-water applied weed control, transplanted paddy rice (greenhouse); type: in vivo, Bolboschoenus maritimus (L.) Palla
Procedure: (§10) Weed seeds or nutlets of the desired test plant species were planted in puddled soil (mud) prepared by mixing a shredded, non-sterilized mineral soil (50.5 percent silt, 25.5 percent clay, and 24 percent sand, with a pH of about 7.6 and an organic matter content of about 2.9 percent) and water at a 1:1 volumetric ratio. The prepared mud was dispensed in 365 mL aliquots into 16-ounce (oz.) non-perforated plastic pots with a surface area of 86.59 square centimeters (cm^2) leaving a headspace of 3 centimeters (cm) in each pot. Mud was allowed to dry overnight prior to planting or transplanting. Rice seeds were planted in Sun Gro MetroMix® 306 planting mixture, which typically has a pH of 6.0 to 6.8 and an organic matter content of about 30 percent, in plastic plug trays. Seedlings at the second or third leaf stage of growth were transplanted into 860 mL of mud contained in 32-oz. non-perforated plastic pots with a surface area of 86.59 cm^2 4 days prior to herbicide application. The paddy was created by filling the headspace of the pots with 2.5 to 3 cm of water. When required to ensure good germination and healthy plants, a fungicide treatment and/or other chemical or physical treatment was applied. The plants were grown for 4-22 days in a greenhouse with an approximate 14 hr photoperiod which was maintained at about 29′C during the day and 26° C. during the night. Nutrients were added as Osmocote® (19:6:12, N:P:K+minor nutrients) at 2 g per 16-oz. pot and 4 g per 32-oz. pot. Water was added on a regular basis to maintain the paddy flood, and supplemental lighting was provided with overhead metal halide 1000-Watt lamps as necessary. The plants were employed for testing when they reached the first through fourth true leaf stage.
(§11) Treatments consisted of the acid or esters of 4-amino-3-chloro-5-fluoro-6-(4-chloro-2-fluoro-3-methoxy-phenyl)pyridine-2-carboxylic acid (compound A) each formulated as an SC and various herbicidal components alone and in combination. Forms of compound A were applied on an acid equivalent basis.
(§12) Other herbicidal components were applied on an active ingredient basis and included the dimethoxy-pyrimidine acid acetolactate synthase (ALS)-inhibiting herbicides bispyribac-sodium formulated as Regiment® 80 WP, pyriminobac-methyl formulated as Hie Clean®, and pyriftalid (technical grade material).
(§13) Treatment requirements for each compound or herbicidal component were calculated based upon the rates being tested, the concentration of active ingredient or acid equivalent in the formulation, an application volume of 2 mL per component per pot, and an application area of 86.59 cm^2 per pot.
(§14) For formulated compounds, a measured amount was placed in an individual 100 or 200 mL glass vial and was dissolved in a volume of 1.25% (v/v) Agri-Dex® crop oil concentrate to obtain application solutions.
(§15) For technical grade compounds, a weighed amount was placed in an individual 100 to 200 mL glass vial and was dissolved in a volume of acetone to obtain concentrated stock solutions. […] The concentrated stock solutions obtained were diluted with an equivalent volume of an aqueous mixture containing 2.5% (v/v) crop oil concentrate so that the final application solutions contained 1.25% (v/v) crop oil concentrate.
(§16) Applications were made by injecting with a pipetter appropriate amounts of the application solutions, individually and sequentially, into the aqueous layer of the paddy.
(§17) Control plants were treated in the same manner with the solvent blank. Applications were made so that all treated plant material received the same concentrations of acetone and crop oil concentrate.
(§18) The treated plants and control plants were placed in a greenhouse as described above and water was added as needed to maintain a paddy flood. […]

[5] = test system: CYPRO; assay: as above; type: in vivo, Cyperus rotundus L.
Procedure: as §10, §11, §12, §13, §14, §15, §16, §17, §18

[6] = test system: FIMMI; assay: as above; type: in vivo, Fimbristylis miliacea (L.) Vahl
Procedure: as §10, §11, §12, §13, §14, §15, §16, §17, §18

[7] = test system: BRAPP; assay: Postemergence foliar-applied weed control, direct seeded rice (greenhouse); type: in vivo, Brachiaria platyphylla (Griseb.) Nash
From the text: as §1, §2, §3, §4

## COc1cc(OC)nc(Oc2cccc(Oc3nc(OC)cc(OC)n3)c2C(=O)ON=C(c2ccccc2)c2ccccc2)n1 [Pyribenzoxim, diphenylmethanone O-[2,6-bis[(4,6-dimethoxy-2-pyrimidinyl)oxy]benzoyl]oxime, reference compound]
[1]; 70 gai/ha
  Visual Weed Control (%) - 20 DAA ECHCG Obs: 85%

## COc1c(Cl)ccc(-c2nc(C(=O)OCc3ccccc3)c(Cl)c(N)c2F)c1F [Compound A Benzyl Ester]
[2]; 4.38 gae/ha
  Visual Weed Control (%)-24 DAA LEFCH Obs: 0%
[2]; 8.75 gae/ha
  Visual Weed Control (%)-20 DAA LEFCH Obs: 10%
  Visual Weed Control (%)-24 DAA LEFCH Obs: 0%
[2]; 17.5 gae/ha
  Visual Weed Control (%)-20 DAA LEFCH Obs: 20%
  Visual Weed Control (%)-22 DAA LEFCH Obs: 25%
  Visual Weed Control (%)-24 DAA LEFCH Obs: 10%
[1]; 8 gae/ha
  Visual Weed Control (%) - 20 DAA ECHCG Obs: 75%
[1]; 16 gae/ha
  Visual Weed Control (%) - 20 DAA ECHCG Obs: 85%
[3]; 4.38 gae/ha
  Visual Weed Control (%)-24 DAA IPOHE Obs: 10%
[3]; 8.75 gae/ha
  Visual Weed Control (%)-24 DAA IPOHE Obs: 15%
[3]; 17.5 gae/ha
  Visual Weed Control (%)-21 DAA IPOHE Obs: 43%
  Visual Weed Control (%)-24 DAA IPOHE Obs: 30%
[4]; 4.38 gae/ha
  Visual Weed Control (%)-21 DAA SCPMA Obs: 0%
[4]; 8.75 gae/ha
  Visual Weed Control (%)-21 DAA SCPMA Obs: 0%
[4]; 35 gae/ha
  Visual Weed Control (%)-20 DAA SCPMA Obs: 0%
[4]; 35 gae/ha, Table 11
  Visual Weed Control (%)-20 DAA SCPMA Obs: 0%
[4]; 70 gae/ha
  Visual Weed Control (%)-20 DAA SCPMA Obs: 0%
[5]; 4.38 gae/ha
  Visual Weed Control (%)-20 DAA CYPRO Obs: 50%
[5]; 4.38 gae/ha, Table 11
  Visual Weed Control (%)-21 DAA CYPRO Obs: 0%
[5]; 4.38 gae/ha, Table 13
  Visual Weed Control (%)-21 DAA CYPRO Obs: 30%
[5]; 8.75 gae/ha, Table 11
  Visual Weed Control (%)-21 DAA CYPRO Obs: 20%
[5]; 8.75 gae/ha, Table 13
  Visual Weed Control (%)-21 DAA CYPRO Obs: 60%
[5]; 17.5 gae/ha
  Visual Weed Control (%)-21 DAA CYPRO Obs: 10%
[6]; 4.38 gae/ha
  Visual Weed Control (%)-21 DAA FIMMI Obs: 20%

## COc1cc(OC)nc(Sc2cccc3c2C(=O)OC3C)n1 (centres unmarked) [Pyriftalid, 7-[(4,6-dimethoxy-2-pyrimidinyl)thio]-3-methyl-1 (3H)-isobenzofuranone, reference compound]
[2]; 45 gai/ha
  Visual Weed Control (%)-22 DAA LEFCH Obs: 0%
[2]; 90 gai/ha
  Visual Weed Control (%)-22 DAA LEFCH Obs: 0%
[7]; 45 gai/ha
  Visual Weed Control (%)-22 DAA BRAPP Obs: 0%
[7]; 90 gai/ha
  Visual Weed Control (%)-22 DAA BRAPP Obs: 0%
[5]; 45 gai/ha, Table 12
  Visual Weed Control (%)-21 DAA CYPRO Obs: 0%
[5]; 45 gai/ha, Table 13
  Visual Weed Control (%)-21 DAA CYPRO Obs: 0%
[5]; 90 gai/ha, Table 12
  Visual Weed Control (%)-21 DAA CYPRO Obs: 0%
[5]; 90 gai/ha, Table 13
  Visual Weed Control (%)-21 DAA CYPRO Obs: 0%
[6]; 45 gai/ha
  Visual Weed Control (%)-21 DAA FIMMI Obs: 50%
[6]; 90 gai/ha
  Visual Weed Control (%)-21 DAA FIMMI Obs: 30%
